From US20220072011A1, “TREATMENTS OF ACCUMULATED FAT WITH DEOXYCHOLIC ACID AND SALTS THEREOF” (Allergan Sales, LLC, priority 2015, published 2022)

Test: Precipitate formation from sodium deoxycholate solutions after 1 week of storage (visual inspection)
Assay type: physicochemical
Details: 1 week storage
Description: Solutions of sodium deoxycholate at different concentration were evaluated for precipitate formation after 1 week of storage. […] By visual inspection, the amount of precipitation can be rated as tabulated below.

C[C@H](CCC(=O)[O-])[C@H]1CCC2C3CC[C@@H]4C[C@H](O)CC[C@]4(C)C3C[C@H](O)[C@@]21C.[Na+] (stereo partly drawn) [Sodium Deoxycholate, sodium (4R)-4-((3R,5R,10S,12S,13R,17R)-3,12-dihydroxy-10,13-dimethylhexadecahydro-1H-cyclopenta[a]phenanthren-17-yl)pentanoate]
Precipitation, Comment (0.5% w/v): Significant amounts of precipitate visible to the naked eye
Precipitation, Comment (1.0% w/v): Significant amounts of precipitate visible to the naked eye
